Experimental data: ChEMBL document CHEMBL1126962, “Antagonists of luteinising hormone-releasing hormone (LHRH). Progress towards non-peptide leads” (1993)

Columns and labels:
Assay type in all cases: functional
Rattus norvegicus [1] = assay: Effective dose required to inhibit ovulation in normal cycling rats at a dose of 2 mg/kg
Rattus norvegicus [2] = organism: Rattus norvegicus; assay: Effective dose required to inhibit ovulation in normal cycling rats
Rattus norvegicus [3] = assay: Effective dose required to inhibit ovulation in normal cycling rats at 1 mg/kg

| SMILES | ED50 (Rattus norvegicus [2]) [ug rat-1] | other results |
| --- | --- | --- |
| CC(C)C[C@@H]1NC(=O)[C@@H](CCCN=C(N)N)NC(=O)[C@@H]2CCC(=O)NCCCC[C@H](NC1=O)C(=O)N1CCC[C@H]1C(=O)N[C@H](C)C(=O)N[C@H](Cc1ccc(Cl)cc1)C(=O)N[C@H](Cc1ccc(Cl)cc1)C(=O)N[C@H](Cc1c[nH]c3ccccc13)C(=O)N[C@@H](CO)C(=O)N2 | – | inhibition in vivo at 2 mg/kg (Rattus norvegicus [1]): 40% |
| CC(=O)N[C@H](Cc1ccc(Cl)cc1)C(=O)N[C@H](Cc1ccc(Cl)cc1)C(=O)N[C@H](Cc1c[nH]c2ccccc12)C(=O)N[C@@H](CO)C(=O)N[C@H]1CC(=O)NCCCC[C@@H](C(=O)N2CCC[C@H]2C(=O)N[C@H](C)C(N)=O)NC(=O)[C@H](CC(C)C)NC(=O)[C@@H](CCCN=C(N)N)NC1=O | 180 | – |
| CC(C)C[C@@H]1NC(=O)[C@@H](CCCN=C(N)N)NC(=O)[C@@H]2CCC(=O)NCCCC[C@H](NC1=O)C(=O)N1CCC[C@H]1C(=O)N(C)[C@H](C)C(=O)N[C@H](Cc1ccc(Cl)cc1)C(=O)N[C@H](Cc1ccc(Cl)cc1)C(=O)N[C@H](Cc1c[nH]c3ccccc13)C(=O)N[C@@H](CO)C(=O)N2 | – | ED50 (Rattus norvegicus [3]): 200 ug rat-1; inhibition in vivo at 1 mg/kg (Rattus norvegicus [3]): 50% |
| CC(=O)N[C@H](Cc1ccc(Cl)cc1)C(=O)N[C@H](Cc1ccc(Cl)cc1)C(=O)N[C@H](Cc1c[nH]c2ccccc12)C(=O)N[C@@H](CO)C(=O)N[C@H]1CC(=O)NCCC[C@@H](C(=O)N2CCC[C@H]2C(=O)N[C@H](C)C(N)=O)NC(=O)[C@H](CC(C)C)NC(=O)[C@@H](CCCN=C(N)N)NC1=O | 540 | – |
| CC(=O)N[C@H](Cc1ccc(Cl)cc1)C(=O)N[C@H](Cc1ccc(Cl)cc1)C(=O)N[C@H](Cc1c[nH]c2ccccc12)C(=O)N[C@@H](CO)C(=O)N[C@H]1CCC(=O)NCCCC[C@@H](C(=O)N2CCC[C@H]2C(=O)N[C@H](C)C(N)=O)NC(=O)[C@H](CC(C)C)NC(=O)[C@@H](CCCN=C(N)N)NC1=O | 90 | – |
